From US10323018B2 (Millennium Pharmaceuticals, Inc., priority 2015, dated 2019)

Legend:
hNAMPT protein = hNAMPT protein (Homo sapiens (Human), UniProt P43490); test: NAMPT enzyme assay (TR-FRET/HTRF with BodiPY ligand); assay type: binding; details: for inhibition at 1 µM: NAMPT inhibition at compound concentration 1 μM, read-out: Percent Inhibition; for IC50: NAMPT inhibition, IC50 range class
In short: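 His-tagged hNAMPT with anti-6His-Tb, incubated with compound and BodiPY ligand for 1 h at rt in the dark, in Tris-HCl pH 7.5 buffer with DTT, NaCl, MgCl2 and Tween 20. TR-FRET measured with 320 nm excitation as the 520/486 nm emission ratio. IC50 fitted relative to DMSO controls.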

PC3 cells = test: PC3 growth inhibition (Cell-titer glo, 72 hours); assay type: cell-based; details: Homo sapiens, PC-3, 72 h, read-out: Percent Viability, PC3 cells, compound concentration 1.667 μM, 72 hours
In short: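 PC3 cells grown in RPMI1640 plated at 8×10^4 cells/ml, incubated overnight, then exposed to compound diluted in AIM serum-free medium for 72 h at 37 °C, 5% CO2. Luminescence by CellTiter-Glo relative to DMSO controls; % viability at single concentration, GI50 or LD50 from concentration-response curves.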

Sequence of hNAMPT protein (P43490 whole entry): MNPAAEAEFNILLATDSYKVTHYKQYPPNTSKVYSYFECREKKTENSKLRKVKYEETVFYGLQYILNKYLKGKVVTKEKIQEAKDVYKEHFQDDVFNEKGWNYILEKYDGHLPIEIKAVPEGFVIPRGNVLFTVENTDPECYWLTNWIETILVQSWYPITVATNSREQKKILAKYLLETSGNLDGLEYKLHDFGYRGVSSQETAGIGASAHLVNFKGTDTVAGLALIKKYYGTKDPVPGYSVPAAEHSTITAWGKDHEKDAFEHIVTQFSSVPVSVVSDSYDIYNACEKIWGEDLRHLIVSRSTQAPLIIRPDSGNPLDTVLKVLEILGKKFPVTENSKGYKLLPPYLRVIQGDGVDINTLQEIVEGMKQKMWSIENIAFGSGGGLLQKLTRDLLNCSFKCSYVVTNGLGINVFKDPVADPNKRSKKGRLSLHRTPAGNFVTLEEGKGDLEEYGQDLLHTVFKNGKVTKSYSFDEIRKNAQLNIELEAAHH

`CCOc1cc(-c2ccc(F)cc2)nc2cc(C(=O)N[C@H]3C[C@@H](c4ncc[nH]4)C3)ccc12` [Compound I-60, 4-Ethoxy-2-(4-fluorophenyl)-N-[cis-3-(1H-imidazol-2-yl)cyclobutyl]quinoline-7-carboxamide] was tested, and the inhibition at 1 µM (hNAMPT protein) was 99%, the IC50 (hNAMPT protein) was < 10 nM and the viability at 1.667 µM (PC3 cells) was 1%.
For `CCOc1cc(OCC)c2ccc(C(=O)NCCCc3ncc[nH]3)cc2n1` [Compound I-61, N-(3-(1H-Imidazol-2-yl)propyl)-2,4-diethoxyquinoline-7-carboxamide], the inhibition at 1 µM (hNAMPT protein) was 99%, the IC50 (hNAMPT protein) was < 10 nM and the viability at 1.667 µM (PC3 cells) was 2%.
With `CCOc1cc(N2CCCC2)nc2cc(C(=O)NCCCc3ncc[nH]3)ccc12` [Compound I-62, 4-Ethoxy-N-[3-(1H-imidazol-2-yl)propyl]-2-(pyrrolidin-1-yl)quinoline-7-carboxamide] the inhibition at 1 µM (hNAMPT protein) was 95%, the IC50 (hNAMPT protein) was 50 to 100 nM and the viability at 1.667 µM (PC3 cells) was 2%.
For `Cc1nc(-c2ccc(Cl)cc2)nc2cc(C(=O)NCCCc3nnc[nH]3)ccc12` [Compound I-63, N-(3-(4H-1,2,4-triazol-3-yl)propyl)-2-(4-chlorophenyl)-4-methylquinazoline-7-carboxamide], the inhibition at 1 µM (hNAMPT protein) was 77%, the IC50 (hNAMPT protein) was > 100 nM and the viability at 1.667 µM (PC3 cells) was 7%.
For `COCCOCc1nc(-c2ccc(Cl)cc2)nc2cc(C(=O)NCCCc3nnc[nH]3)ccc12` [Compound I-64, N-(3-(4H-1,2,4-yriazol-3-yl)propyl)-2-(4-chlorophenyl)-4-((2-methoxyethoxy)methyl)quinazoline-7-carboxamide], the inhibition at 1 µM (hNAMPT protein) was 91%, the IC50 (hNAMPT protein) was 50 to 100 nM and the viability at 1.667 µM (PC3 cells) was 1%.
`CCOc1c(F)c(-c2ccnc(OC)c2)nc2cc(C(=O)NCCCc3[nH]nnc3C)ccc12` [Compound I-65, 4-ethoxy-3-fluoro-2-(2-methoxypyridin-4-yl)-N-[3-(4-methyl-1H-1,2,3-triazol-5-yl)propyl]quinoline-7-carboxamide] showed an inhibition at 1 µM (hNAMPT protein) of 91%, an IC50 (hNAMPT protein) of 50 to 100 nM and a viability at 1.667 µM (PC3 cells) of 1%.
In the case of `COCCOc1cc(-c2ccc(F)cc2)nc2cc(C(=O)NCCCc3n[nH]nc3C)ccc12` [Compound I-66, 2-(4-fluorophenyl)-4-(2-methoxyethoxy)-N-[3-(5-methyl-2H-1,2,3-triazol-4-yl)propyl]quinoline-7-carboxamide], the inhibition at 1 µM (hNAMPT protein) is reported as 94%, the IC50 (hNAMPT protein) is reported as 10 to 50 nM and the viability at 1.667 µM (PC3 cells) is reported as 2%.
In the case of `COCCOc1cc(-c2ccnc(OC)c2)nc2cc(C(=O)NCc3ccn4ncnc4c3)ccc12` [Compound I-67], the inhibition at 1 µM (hNAMPT protein) is reported as 85% and the viability at 1.667 µM (PC3 cells) is reported as 3%.
Work on `CCOc1cc(-c2cc(OC)ncc2F)nc2cc(C(=O)NCCCc3[nH]nnc3C)ccc12` [Compound I-68, 4-ethoxy-2-(5-fluoro-2-methoxypyridin-4-yl)-N-[3-(4-methyl-1H-1,2,3-triazol-5-yl)propyl]quinoline-7-carboxamide] yielded an inhibition at 1 µM (hNAMPT protein) of 92%, an IC50 (hNAMPT protein) of 10 to 50 nM and a viability at 1.667 µM (PC3 cells) of 1%.
For `COCCOc1cc(-c2ccnc(C)c2)nc2cc(C(=O)NCc3ccn4ncnc4c3)ccc12` [Compound I-69, 4-(2-methoxyethoxy)-2-(2-methylpyridin-4-yl)-N-([1,2,4]triazolo[1,5-a]pyridin-7-ylmethyl)quinoline-7-carboxamide], the inhibition at 1 µM (hNAMPT protein) was 86%, the IC50 (hNAMPT protein) was > 100 nM and the viability at 1.667 µM (PC3 cells) was 4%.
For `CCOc1cc(-c2ccnc(OC)c2)nc2cc(C(=O)NCc3ccn4ncnc4c3)ccc12` [Compound I-70, 4-ethoxy-2-(2-methoxypyridin-4-yl)-N-([1,2,4]triazolo[1,5-a]pyridin-7-ylmethyl)quinoline-7-carboxamide], the inhibition at 1 µM (hNAMPT protein) was 99%, the IC50 (hNAMPT protein) was < 10 nM and the viability at 1.667 µM (PC3 cells) was 1%.
For `CCOc1cc(-c2ccnc(OC)c2)nc2cc(C(=O)NCCCc3[nH]nnc3C)ccc12` [Compound I-71, 4-ethoxy-2-(2-methoxypyridin-4-yl)-N-[3-(4-methyl-1H-1,2,3-triazol-5-yl)propyl]quinoline-7-carboxamide], the inhibition at 1 µM (hNAMPT protein) was 97%, the IC50 (hNAMPT protein) was 10 to 50 nM and the viability at 1.667 µM (PC3 cells) was 2%.
For `CCOc1c(F)c(-c2ccc(F)cc2)nc2cc(C(=O)NCCCc3cnn[nH]3)ccc12` [Compound I-73, 4-ethoxy-3-fluoro-2-(4-fluorophenyl)-N-[3-(1H-1,2,3-triazol-4-yl)propyl]quinoline-7-carboxamide], the inhibition at 1 µM (hNAMPT protein) was 100%, the IC50 (hNAMPT protein) was < 10 nM and the viability at 1.667 µM (PC3 cells) was 1%.
With `CCOc1cc(-c2ccnc(C)c2)nc2cc(C(=O)NCc3ccc4ncnn4c3)ccc12` [Compound I-74, 4-ethoxy-2-(2-methylpyridin-4-yl)-N-([1,2,4]triazolo[1,5-a]pyridin-6-ylmethyl)quinoline-7-carboxamide] the inhibition at 1 µM (hNAMPT protein) was 100%, the IC50 (hNAMPT protein) was < 10 nM and the viability at 1.667 µM (PC3 cells) was 1%.
`CCOc1cc(-c2ccnc(C)c2)nc2cc(C(=O)NCCCc3[nH]nnc3C)ccc12` [Compound I-75, 4-ethoxy-2-(2-methylpyridin-4-yl)-N-[3-(4-methyl-1H-1,2,3-triazol-5-yl)propyl]quinoline-7-carboxamide] was tested, and the inhibition at 1 µM (hNAMPT protein) was 94%, the IC50 (hNAMPT protein) was 10 to 50 nM and the viability at 1.667 µM (PC3 cells) was 1%.
With `CCOc1cc(-c2ccc(=O)n(C)c2)nc2cc(C(=O)NCCc3[nH]nnc3C)ccc12` [Compound I-76, 4-ethoxy-2-(1-methyl-6-oxo-1,6-dihydropyridin-3-yl)-N-[2-(4-methyl-1H-1,2,3-triazol-5-yl)ethyl]quinoline-7-carboxamide] the inhibition at 1 µM (hNAMPT protein) was 93%, the IC50 (hNAMPT protein) was 50 to 100 nM and the viability at 1.667 µM (PC3 cells) was 11%.
For `CCOc1cc(-c2ccc(C)nc2)nc2cc(C(=O)NCCc3[nH]nnc3C)ccc12` [Compound I-77, 4-ethoxy-2-(6-methylpyridin-3-yl)-N-[2-(4-methyl-1H-1,2,3-triazol-5-yl)ethyl]quinoline-7-carboxamide], the inhibition at 1 µM (hNAMPT protein) was 97%, the IC50 (hNAMPT protein) was 10 to 50 nM and the viability at 1.667 µM (PC3 cells) was 1%.
With `CCOc1c(F)c(-c2ccc(F)cc2)nc2cc(C(=O)NCCCc3nnc[nH]3)ccc12` [Compound I-78, 4-ethoxy-3-fluoro-2-(4-fluorophenyl)-N-[3-(4H-1,2,4-triazol-3-yl)propyl]quinoline-7-carboxamide] the inhibition at 1 µM (hNAMPT protein) was 99%, the IC50 (hNAMPT protein) was < 10 nM and the viability at 1.667 µM (PC3 cells) was 2%.
With `CCOc1cc(-c2ccc(F)cc2)nc2cc(C(=O)NCc3cc4cnccc4s3)ccc12` [Compound I-79, 4-ethoxy-2-(4-fluorophenyl)-N-(thieno[3,2-c]pyridin-2-ylmethyl)quinoline-7-carboxamide] the inhibition at 1 µM (hNAMPT protein) was 99%, the IC50 (hNAMPT protein) was < 10 nM and the viability at 1.667 µM (PC3 cells) was 2%.
For `CCOc1cc(-c2ccc(F)cc2)nc2cc(C(=O)NCc3cc4[nH]ncc4s3)ccc12` [Compound I-80, 4-ethoxy-2-(4-fluorophenyl)-N-(1H-thieno[3,2-c]pyrazol-5-ylmethyl)quinoline-7-carboxamide], the inhibition at 1 µM (hNAMPT protein) was 98%, the IC50 (hNAMPT protein) was < 10 nM and the viability at 1.667 µM (PC3 cells) was 2%.
For `COCCOc1cc(-c2ccc(F)cc2)nc2cc(C(=O)NCC(F)(F)Cc3nnc[nH]3)ccc12` [Compound I-81, N-[2,2-difluoro-3-(4H-1,2,4-triazol-3-yl)propyl]-2-(4-fluorophenyl)-4-(2-methoxyethoxy)quinoline-7-carboxamide], the inhibition at 1 µM (hNAMPT protein) was 67%, the IC50 (hNAMPT protein) was > 100 nM and the viability at 1.667 µM (PC3 cells) was 2%.
With `COCCOc1cc(-c2ccc(F)cc2)nc2cc(C(=O)NCc3ccn4ncnc4c3)ccc12` [Compound I-82, 2-(4-fluorophenyl)-4-(2-methoxyethoxy)-N-([1,2,4]triazolo[1,5-a]pyridin-7-ylmethyl)quinoline-7-carboxamide] the inhibition at 1 µM (hNAMPT protein) was 100%, the IC50 (hNAMPT protein) was < 10 nM and the viability at 1.667 µM (PC3 cells) was 2%.
In the case of `CCOc1cc(-c2ccnc(OC)c2)nc2cc(C(=O)NCCc3[nH]nnc3C)ccc12` [Compound I-83, 4-ethoxy-2-(2-methoxypyridin-4-yl)-N-[2-(4-methyl-1H-1,2,3-triazol-5-yl)ethyl]quinoline-7-carboxamide], the inhibition at 1 µM (hNAMPT protein) is reported as 96%, the IC50 (hNAMPT protein) is reported as 10 to 50 nM and the viability at 1.667 µM (PC3 cells) is reported as 2%.
With `CCOc1cc(-c2ccc(F)cc2)nc2cc(C(=O)NCc3ccc4ncnn4c3)ccc12` [Compound I-84, 4-ethoxy-2-(4-fluorophenyl)-N-([1,2,4]triazolo[1,5-a]pyridin-6-ylmethyl)quinoline-7-carboxamide] the inhibition at 1 µM (hNAMPT protein) was 99%, the IC50 (hNAMPT protein) was < 10 nM and the viability at 1.667 µM (PC3 cells) was 1%.
With `CCOc1cc(-c2ccc(F)cc2OC)nc2cc(C(=O)NCc3ccn4ncnc4c3)ccc12` [Compound I-85, 4-ethoxy-2-(4-fluoro-2-methoxyphenyl)-N-([1,2,4]triazolo[1,5-a]pyridin-7-ylmethyl)quinoline-7-carboxamide] the inhibition at 1 µM (hNAMPT protein) was 100%, the IC50 (hNAMPT protein) was < 10 nM and the viability at 1.667 µM (PC3 cells) was 2%.
`CCOc1cc(-c2ccnc(C)c2)nc2cc(C(=O)NCc3ccn4ncnc4c3)ccc12` [Compound I-86, 4-ethoxy-2-(2-methylpyridin-4-yl)-N-([1,2,4]triazolo[1,5-a]pyridin-7-ylmethyl)quinoline-7-carboxamide] was tested, and the inhibition at 1 µM (hNAMPT protein) was 99%, the IC50 (hNAMPT protein) was < 10 nM and the viability at 1.667 µM (PC3 cells) was 2%.
With `CCOc1cc(-c2ccc(C)nc2OC)nc2cc(C(=O)NCCc3[nH]nnc3C)ccc12` [Compound I-87, 4-ethoxy-2-(2-methoxy-6-methylpyridin-3-yl)-N-[2-(4-methyl-1H-1,2,3-triazol-5-yl)ethyl]quinoline-7-carboxamide] the inhibition at 1 µM (hNAMPT protein) was 94%, the IC50 (hNAMPT protein) was 10 to 50 nM and the viability at 1.667 µM (PC3 cells) was 2%.
Work on `CCOc1cc(-c2ccc(OC)nc2)nc2cc(C(=O)NCCc3[nH]nnc3C)ccc12` [Compound I-88, 4-ethoxy-2-(6-methoxypyridin-3-yl)-N-[2-(4-methyl-1H-1,2,3-triazol-5-yl)ethyl]quinoline-7-carboxamide] yielded an inhibition at 1 µM (hNAMPT protein) of 97%, an IC50 (hNAMPT protein) of 10 to 50 nM and a viability at 1.667 µM (PC3 cells) of 1%.
